Key:
[1] = molecular target: T1, N-type calcium channel (NTCC) (Homo sapiens, UniProt Q00975); assay: FLIPR calcium mobilization assay for N-type calcium channel; type: cell-based; conditions: calcium mobilization in vitro assay; differentiated IMR32 cells
T1 construct: host or cells: IMR32 cells differentiated with dibutyryl cAMP and bromodeoxyuridine
Outline: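 Differentiated IMR32 cells (8 days, dibutyryl cAMP and BrdU) loaded with 3 μM Fluo-4 during 90 mM KCl pre-stimulation, with compound at about 846 pM to 17 μM plus 5 μM nitrendipine. After washes in compound, FLIPR read basal fluorescence 315 s, then 45 s after KCl addition (final 90 mM).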

[2] = molecular target: T2, recombinant rat L-type calcium channel (LTCC) subunits (α1c, α2δ, and β1) (Rattus norvegicus, UniProt P22002); assay: FLIPR calcium mobilization assay for L-type calcium channel; type: cell-based; conditions: calcium mobilization in vitro assay; HEK293 cells expressing rat LTCC
T2 construct: expressed in transfected cells
Description: Recombinant human embryonal kidney cells (HEK293, ATCC) stably transfected with either N-type calcium channel (NTCC) subunits (α1b, α2δ, and ⊖3) or L-type calcium channel (LTCC) subunits (α1, α2δ, and β1) were routinely cultured in growth medium consisting of Dulbecco's Modified Eagles Medium containing 10% FBS, 100 U/mL penicillin, 100 μg/mL streptomycin, 4 mM L-glutamine, 500 μg/mL geneticin (G418), 20 μg/mL Blasticidin S (InVivogen, San Diego, Calif.) and 500 μg/mL zeocin (InVivogen).
FLIPR Calcium Mobilization Assay for L-Type Calcium Channel.
One day prior to performing this assay, HEK293 cells stably expressing recombinant rat L-type calcium channel (LTCC) subunits (α1c, α2δ, and β1) were trypsinized, then seeded on poly-D-lysine-coated 96-well clear-bottom black plates (Becton Dickinson, Franklin Lakes, N.J.) at 75,000 cells/well. On the day of the assay, the plates were washed with LTCC wash buffer (127 mM NaCl, 2 mM MgCl2, 700 μM NaH2PO4, 5 mM CaCl2, 5 mM NaHCO3, 8 mM HEPES, 10 mM glucose, pH 7.4), then loaded with 0.1 mL of LTCC wash buffer containing Fluo-4 (3 μM final concentration, Molecular Probes, Eugene, Oreg.). After 1 hour, the cells were washed with 0.1 mL LTCC wash buffer and resuspended in 0.05 mL LTCC assay buffer (same composition as LTCC wash buffer). Plates were then transferred to a FLIPR^96 for assay. The FLIPR measured basal Fluo-4 fluorescence for 15 seconds, then is added 0.05 mL of each compound tested diluted in LTCC assay buffer at final concentrations ranging from about 846 pM to about 17 μM. Fluo-4 fluorescence was then measured for 5 minutes. 0.1 mL KCl agonist dissolved in LTCC assay buffer was then added to the cells to produce a final concentration of 90 mM KCl, and fluorescence was measured for another 45 seconds. Data were collected over the entire time course and analyzed using Excel, Graph Pad Prism, or an in-house regression analysis software.

T1 sequence (Q00975 whole entry): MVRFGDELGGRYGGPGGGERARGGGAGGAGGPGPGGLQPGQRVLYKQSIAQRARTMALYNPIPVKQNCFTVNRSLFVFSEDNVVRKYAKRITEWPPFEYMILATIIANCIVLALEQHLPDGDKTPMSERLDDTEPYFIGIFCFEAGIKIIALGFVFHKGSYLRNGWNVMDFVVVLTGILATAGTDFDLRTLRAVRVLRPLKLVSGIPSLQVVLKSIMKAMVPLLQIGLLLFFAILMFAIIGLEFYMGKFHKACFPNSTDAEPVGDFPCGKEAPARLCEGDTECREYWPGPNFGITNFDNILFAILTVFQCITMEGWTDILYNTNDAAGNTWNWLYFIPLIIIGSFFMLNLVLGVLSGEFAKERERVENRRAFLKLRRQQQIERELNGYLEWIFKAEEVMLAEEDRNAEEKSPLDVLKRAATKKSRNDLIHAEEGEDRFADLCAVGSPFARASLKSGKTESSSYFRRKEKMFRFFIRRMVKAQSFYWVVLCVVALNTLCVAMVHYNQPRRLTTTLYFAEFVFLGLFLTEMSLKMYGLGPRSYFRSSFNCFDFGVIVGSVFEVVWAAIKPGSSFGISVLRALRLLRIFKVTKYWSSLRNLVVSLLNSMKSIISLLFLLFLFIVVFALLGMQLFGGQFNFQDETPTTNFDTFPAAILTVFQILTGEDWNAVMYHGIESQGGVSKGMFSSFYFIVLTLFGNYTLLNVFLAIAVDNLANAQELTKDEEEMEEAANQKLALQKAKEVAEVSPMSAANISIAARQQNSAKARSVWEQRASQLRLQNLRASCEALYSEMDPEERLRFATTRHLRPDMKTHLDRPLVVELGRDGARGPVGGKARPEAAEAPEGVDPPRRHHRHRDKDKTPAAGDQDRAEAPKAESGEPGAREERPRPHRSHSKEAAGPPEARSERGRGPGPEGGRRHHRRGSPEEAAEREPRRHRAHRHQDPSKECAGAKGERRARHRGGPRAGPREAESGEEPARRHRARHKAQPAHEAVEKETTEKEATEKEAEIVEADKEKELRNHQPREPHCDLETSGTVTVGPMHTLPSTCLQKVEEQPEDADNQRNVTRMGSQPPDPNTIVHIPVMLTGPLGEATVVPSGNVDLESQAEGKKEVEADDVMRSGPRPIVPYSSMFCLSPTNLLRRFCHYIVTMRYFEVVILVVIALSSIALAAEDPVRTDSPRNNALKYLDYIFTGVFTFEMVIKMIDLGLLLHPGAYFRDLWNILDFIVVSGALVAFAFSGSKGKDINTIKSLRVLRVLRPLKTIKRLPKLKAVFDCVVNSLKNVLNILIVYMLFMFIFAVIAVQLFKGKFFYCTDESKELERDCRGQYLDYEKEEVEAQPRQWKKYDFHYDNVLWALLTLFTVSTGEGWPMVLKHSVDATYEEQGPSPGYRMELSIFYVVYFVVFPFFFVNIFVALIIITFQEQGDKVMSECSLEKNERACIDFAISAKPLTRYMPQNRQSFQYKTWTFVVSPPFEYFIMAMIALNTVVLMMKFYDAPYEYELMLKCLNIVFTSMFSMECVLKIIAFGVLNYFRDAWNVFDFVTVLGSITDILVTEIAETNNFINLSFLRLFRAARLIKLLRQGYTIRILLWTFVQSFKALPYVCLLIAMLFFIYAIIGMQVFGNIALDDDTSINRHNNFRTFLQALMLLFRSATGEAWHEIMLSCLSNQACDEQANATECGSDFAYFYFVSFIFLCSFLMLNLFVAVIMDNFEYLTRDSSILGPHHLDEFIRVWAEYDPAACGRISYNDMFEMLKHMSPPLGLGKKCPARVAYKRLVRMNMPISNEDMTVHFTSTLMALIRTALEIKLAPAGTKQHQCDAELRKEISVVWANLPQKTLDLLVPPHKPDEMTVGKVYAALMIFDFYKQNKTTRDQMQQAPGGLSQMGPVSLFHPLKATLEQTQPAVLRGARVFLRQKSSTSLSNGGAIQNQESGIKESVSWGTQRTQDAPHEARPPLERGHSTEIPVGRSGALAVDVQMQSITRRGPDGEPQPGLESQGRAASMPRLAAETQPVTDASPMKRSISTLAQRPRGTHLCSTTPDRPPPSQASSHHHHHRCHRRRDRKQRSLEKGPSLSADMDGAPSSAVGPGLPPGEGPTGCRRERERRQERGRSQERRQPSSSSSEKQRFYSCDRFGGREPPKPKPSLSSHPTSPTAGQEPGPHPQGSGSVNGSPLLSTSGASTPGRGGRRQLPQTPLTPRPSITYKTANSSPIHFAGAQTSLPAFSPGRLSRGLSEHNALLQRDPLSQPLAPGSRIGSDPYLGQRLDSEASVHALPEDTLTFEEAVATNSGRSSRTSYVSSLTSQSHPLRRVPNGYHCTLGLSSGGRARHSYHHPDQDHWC
T1 sequence (P54289 25-956 partner limits assumed): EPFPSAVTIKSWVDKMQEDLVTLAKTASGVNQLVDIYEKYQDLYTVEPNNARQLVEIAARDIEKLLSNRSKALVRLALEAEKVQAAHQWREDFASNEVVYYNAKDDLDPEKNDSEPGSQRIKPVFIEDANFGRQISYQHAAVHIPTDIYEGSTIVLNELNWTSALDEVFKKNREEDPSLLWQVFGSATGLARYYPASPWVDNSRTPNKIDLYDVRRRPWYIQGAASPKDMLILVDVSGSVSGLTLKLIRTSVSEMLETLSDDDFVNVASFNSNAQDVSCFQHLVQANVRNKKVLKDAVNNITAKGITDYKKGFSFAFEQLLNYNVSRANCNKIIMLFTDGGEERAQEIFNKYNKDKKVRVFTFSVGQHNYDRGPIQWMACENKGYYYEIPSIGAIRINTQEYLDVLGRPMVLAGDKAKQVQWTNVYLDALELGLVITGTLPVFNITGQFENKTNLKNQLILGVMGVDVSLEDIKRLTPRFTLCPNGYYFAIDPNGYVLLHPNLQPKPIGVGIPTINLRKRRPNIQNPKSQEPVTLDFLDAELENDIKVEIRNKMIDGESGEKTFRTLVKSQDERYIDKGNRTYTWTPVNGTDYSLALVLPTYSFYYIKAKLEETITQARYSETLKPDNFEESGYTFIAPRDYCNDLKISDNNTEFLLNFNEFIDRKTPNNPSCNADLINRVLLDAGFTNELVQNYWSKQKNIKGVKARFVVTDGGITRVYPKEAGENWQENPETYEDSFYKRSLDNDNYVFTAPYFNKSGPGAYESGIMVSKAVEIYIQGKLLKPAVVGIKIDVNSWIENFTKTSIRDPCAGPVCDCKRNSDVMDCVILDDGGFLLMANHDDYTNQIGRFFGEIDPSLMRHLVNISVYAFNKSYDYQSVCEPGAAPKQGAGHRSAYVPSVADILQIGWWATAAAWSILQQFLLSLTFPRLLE
T1 sequence (P54289 957-1103 partner limits assumed): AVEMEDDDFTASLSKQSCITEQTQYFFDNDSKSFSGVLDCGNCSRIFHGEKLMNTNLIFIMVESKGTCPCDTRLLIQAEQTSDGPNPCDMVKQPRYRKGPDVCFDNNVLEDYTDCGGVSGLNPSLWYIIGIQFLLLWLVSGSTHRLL
T1 sequence (P54284 whole entry partner): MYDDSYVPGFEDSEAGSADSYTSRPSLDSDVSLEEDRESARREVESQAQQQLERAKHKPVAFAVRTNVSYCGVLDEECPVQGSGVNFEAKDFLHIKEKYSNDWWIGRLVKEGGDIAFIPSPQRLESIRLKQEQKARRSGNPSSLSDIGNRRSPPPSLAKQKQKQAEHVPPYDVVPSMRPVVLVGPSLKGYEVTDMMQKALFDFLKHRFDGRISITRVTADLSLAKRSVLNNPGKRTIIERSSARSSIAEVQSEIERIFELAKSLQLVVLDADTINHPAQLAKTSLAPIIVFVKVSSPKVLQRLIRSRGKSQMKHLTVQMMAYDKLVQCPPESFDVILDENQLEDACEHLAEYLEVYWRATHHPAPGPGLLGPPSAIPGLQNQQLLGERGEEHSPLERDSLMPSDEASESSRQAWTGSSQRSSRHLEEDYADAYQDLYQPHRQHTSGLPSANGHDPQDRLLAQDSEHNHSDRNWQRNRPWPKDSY

SMILES | IC50 [1] | IC50 [2]
CCC(C(=O)N1CCC(N(C(C)C)S(=O)(=O)c2cccc(C(F)(F)F)c2)CC1)N(C)Cc1ccccc1 (centres unmarked) [Compound 96, N-{1-[2-(Benzyl-methyl-amino)butyryl]-piperidin-4-yl}-N-isopropyl-3-trifluoromethylbenzenesulfonamide] | 820 nM | 4410 nM
CC(C)N(C1CCN(C(=O)[C@H](Cc2ccccc2)NCC(N)=O)CC1)S(=O)(=O)c1cccc(C(F)(F)F)c1 [Compound 109, (S)-2-(1-Benzyl-2-{4-[isopropyl(3-trifluoromethylbenzene-sulfonyl)amino]-piperidin-1-yl}-2-oxo-ethylamino)-acetamide] | 790 nM | 7430 nM
CC(C)N(C1CCN(CC(=O)Nc2nc3ccc(F)cc3s2)CC1)S(=O)(=O)c1cccc(C(F)(F)F)c1 [Compound 42i, N-(6-Fluorobenzothiazol-2-yl)-2-{4-[isopropyl-(3-trifluoromethylbenzenesulfonyl)amino]-piperidin-1-yl}-acetamide] | 670 nM | > 20000 nM
COc1cc(NCCC(=O)N2CCC(N(C(C)C)S(=O)(=O)c3cccc(C(F)(F)F)c3)CC2)cc(OC)c1 [N-{1-[3-(3,5-dimethoxy-phenylamino)-propionyl]-piperidin-4-yl}-N-isopropyl-3-trifluoromethyl-benzenesulfonamide] | 820 nM | > 20000 nM
CC(C)N(C1CCN(C(=O)CCNc2ccc(Cl)cc2)CC1)S(=O)(=O)c1cccc(C(F)(F)F)c1 [N-{1-[3-(4-chloro-phenylamino)-propionyl]-piperidin-4-yl}-N-isopropyl-3-trifluoromethyl-benzenesulfonamide] | 930 nM | > 20000 nM
COc1ccc(CNCCC(=O)N2CCC(N(C(C)C)S(=O)(=O)c3cccc(C(F)(F)F)c3)CC2)cc1 [N-isopropyl-N-{1-[3-(4-methoxy-benzylamino)-propionyl]-piperidin-4-yl}-3-trifluoromethyl-benzenesulfonamide] | 320 nM | 4300 nM
CC(C)CNC(=O)CN1CCC(N(C(C)C)S(=O)(=O)c2cccc(C(F)(F)F)c2)CC1 [Compound 34, N-Isobutyl-2-{4-[isopropyl-(3-trifluoromethylbenzenesulfonyl)amino]-piperidin-1-yl}-acetamide] | 320 nM | 9080 nM
CC(C)N(C1CCN(C(=O)CCNc2ccc(F)c(F)c2)CC1)S(=O)(=O)c1cccc(C(F)(F)F)c1 [N-{1-[3-(3,4-difluoro-phenylamino)-propionyl]-piperidin-4-yl}-N-isopropyl-3-trifluoromethyl-benzenesulfonamide] | 390 nM | > 20000 nM
O=C(CN1CCC(N(C2CC2)S(=O)(=O)c2cccc(C(F)(F)F)c2)CC1)Nc1cc(F)cc(C(F)(F)F)c1 [Compound 73, 2-{4-[Cyclopropyl-(3-trifluoromethylbenzenesulfonyl)amino]-piperidin-1-yl}-N-(3-fluoro-5-trifluoromethylphenyl)-acetamide] | 610 nM | > 20000 nM
CC(C)CC(O)C(=O)N1CCC(N(C(C)C)S(=O)(=O)c2cccc(C(F)(F)F)c2)CC1 (centres unmarked) [N-[1-(2-hydroxy-4-methyl-pentanoyl)-piperidin-4-yl]-N-isopropyl-3-trifluoromethyl-benzenesulfonamide] | 950 nM | 5490 nM
CC(C)CC(CC(=O)N1CCC(N(C(C)C)S(=O)(=O)c2cccc(C(F)(F)F)c2)CC1)NCCOCc1ccccc1 (centres unmarked) [N-{1-[3-(2-benzyloxy-ethylamino)-5-methyl-hexanoyl]-piperidin-4-yl}-N-isopropyl-3-trifluoromethyl-benzenesulfonamide] | 220 nM | 4480 nM
CC(C)N(C1CCN(C(=O)C(N)Cc2ccc(OCc3ccccc3)cc2)CC1)S(=O)(=O)c1cccc(C(F)(F)F)c1 (centres unmarked) [N-{1-[2-amino-3-(4-benzyloxy-phenyl)-propionyl]-piperidin-4-yl}-N-isopropyl-3-trifluoromethyl-benzenesulfonamide] | 710 nM | 2380 nM
COc1ccc(NC(=O)CN2CCC(N(C(C)C)S(=O)(=O)c3cccc(C(F)(F)F)c3)CC2)cc1 [Compound 42h, 2-{4-[isopropyl-(3-trifluoromethylbenzenesulfonyl)amino]-piperidin-1-yl}-N-(4-methoxyphenyl)acetamide] | 460 nM | 5320 nM
CC(C)N(C1CCN(C(=O)CCNc2ccc(F)cc2F)CC1)S(=O)(=O)c1cccc(C(F)(F)F)c1 [N-{1-[3-(2,4-difluoro-phenylamino)-propionyl]-piperidin-4-yl}-N-isopropyl-3-trifluoromethyl-benzenesulfonamide] | 830 nM | > 20000 nM
CC(C)N(C1CCN(C(=O)CCNc2ccccc2F)CC1)S(=O)(=O)c1cccc(C(F)(F)F)c1 [N-{1-[3-(2-fluoro-phenylamino)-propionyl]-piperidin-4-yl}-N-isopropyl-3-trifluoromethyl-benzenesulfonamide] | 550 nM | 9650 nM
CC(C)N(C1CCN(C(=O)CCN(C)Cc2ccccc2)CC1)S(=O)(=O)c1cccc(C(F)(F)F)c1 [N-{1-[3-(benzyl-methyl-amino)-propionyl]-piperidin-4-yl}-N-isopropyl-3-trifluoromethyl-benzenesulfonamide] | 420 nM | 7480 nM
Cc1ccccc1NC(=O)CN1CCC(N(C(C)C)S(=O)(=O)c2cccc(C(F)(F)F)c2)CC1 [Compound 42b, 2-{4-[Isopropyl-(3-trifluoromethylbenzenesulfonyl)amino]-piperidin-1-yl}-N-o-tolyl-acetamide] | 460 nM | 3230 nM
O=C(CN1CCC(N(C2CC2)S(=O)(=O)c2cccc(C(F)(F)F)c2)CC1)Nc1cc(C(F)(F)F)cc(C(F)(F)F)c1 [Compound 63, N-(3,5-Bis-trifluoromethylphenyl)-2-{4-[cyclopropyl-(3-trifluoromethylbenzenesulfonyl)amino]-piperidin-1-yl}-acetamide] | 660 nM | > 20000 nM
O=C(CN1CCC(N(C2CC2)S(=O)(=O)c2cccc(C(F)(F)F)c2)CC1)Nc1ccc(F)c(C(F)(F)F)c1 [Compound 71, 2-{4-[Cyclopropyl-(3-trifluoromethylbenzenesulfonyl)amino]-piperidin-1-yl}-N-(4-fluoro-3-trifluoromethylphenyl)-acetamide] | 610 nM | > 20000 nM
Cc1cccc(C)c1NCCC(=O)N1CCC(N(C(C)C)S(=O)(=O)c2cccc(C(F)(F)F)c2)CC1 [N-{1-[3-(2,6-dimethyl-phenylamino)-propionyl]-piperidin-4-yl}-N-isopropyl-3-trifluoromethyl-benzenesulfonamide] | 460 nM | > 20000 nM
O=C(CN1CCC(N(C2CC2)S(=O)(=O)c2cccc(C(F)(F)F)c2)CC1)Nc1ccc(C(F)(F)F)cc1F [Compound 75, 2-{4-[Cyclopropyl-(3-trifluoromethylbenzenesulfonyl)amino]-piperidin-1-yl}-N-(2-fluoro-4-trifluoromethylphenyl)-acetamide] | 780 nM | > 20000 nM
CN(C1CCN(CC(=O)Nc2ccc(C(F)(F)F)cc2)CC1)S(=O)(=O)c1cccc(C(F)(F)F)c1 [Compound 60, 2-{4-[Methyl-(3-trifluoromethylbenzenesulfonyl)-amino]-piperidin-1-yl}-N-(4-trifluoromethylphenyl)acetamide] | 990 nM | > 20000 nM
COc1ccc(OC)c(NCCC(=O)N2CCC(N(C(C)C)S(=O)(=O)c3cccc(C(F)(F)F)c3)CC2)c1 [N-{1-[3-(2,5-dimethoxy-phenylamino)-propionyl]-piperidin-4-yl}-N-isopropyl-3-trifluoromethyl-benzenesulfonamide] | 750 nM | > 20000 nM
CC(C)N(C1CCN(C(=O)CNCC2CCCCC2)CC1)S(=O)(=O)c1cccc(C(F)(F)F)c1 [Compound 102, N-{1-[2-(Cyclohexylmethylamino)acetyl]-piperidin-4-yl}-N-isopropyl-3-trifluoromethylbenzenesulfonamide] | 220 nM | > 20000 nM
COc1ccc(CNCC(=O)N2CCC(N(C3CC3)S(=O)(=O)c3ccc(Cl)cc3)CC2)cc1 [Compound 100, 4-Chloro-N-cyclopropyl-N-{1-[2-(4-methoxybenzylamino)acetyl]-piperidin-4-yl}-benzenesulfonamide] | 660 nM | 10000 to 20000 nM
